Source: ChEMBL document CHEMBL5724914, “Linking interpersonal differences in gut microbiota composition and drug biotransformation activity” (2024)

Legend:
[1] = (§1) The drug is tested on Z-024 corresponding to pig gut metagenome with ENA study accession number: PRJEB37062 and ENA sample accession number: ERS12561823 for biotransformation under anaerobic condition. The drug concentrations were measured over 9 timepoints collected between 0 and 24 hours of incubation by liquid-chromatography-coupled mass spectrometry (LC–MS); conditions: 2 µM
[2] = as §1, with “WLS-240” for “Z-024”, “human” for “pig”, “ERS12561773” for “ERS12561823”; conditions: 2 µM
[3] = as §1, with “WLS-098” for “Z-024”, “human” for “pig”, “ERS12561754” for “ERS12561823”; conditions: 2 µM
[4] = as §1, with “WLS-073” for “Z-024”, “human” for “pig”, “ERS12561749” for “ERS12561823”; conditions: 2 µM
[5] = as §1, with “WLS-052” for “Z-024”, “human” for “pig”, “ERS12561747” for “ERS12561823”; conditions: 2 µM
[6] = as §1, with “WLS-027” for “Z-024”, “human” for “pig”, “ERS12561744” for “ERS12561823”; conditions: 2 µM
[7] = human gut metagenome, 24 h, 2 µM
[8] = human gut metagenome, 24 h, 2 µM; remark: listed apart in the source
[9] = human gut metagenome, 24 h, 2 µM; remark: listed apart in the source
[10] = human gut metagenome, 24 h, 2 µM; remark: listed apart in the source
[11] = human gut metagenome, 24 h, 2 µM; remark: listed apart in the source
[12] = human gut metagenome, 24 h, 2 µM; remark: listed apart in the source
[13] = as §1, with “WLS-082” for “Z-024”, “human” for “pig”, “ERS12561751” for “ERS12561823”; conditions: 2 µM
[14] = as §1, with “WLS-069” for “Z-024”, “human” for “pig”, “ERS12561748” for “ERS12561823”; conditions: 2 µM
[15] = human gut metagenome, 24 h, 2 µM; remark: listed apart in the source
[16] = human gut metagenome, 24 h, 2 µM; remark: listed apart in the source
[17] = as §1, with “Z-028” for “Z-024”, “mouse” for “pig”, “ERS12561827” for “ERS12561823”; conditions: 2 µM
[18] = as §1, with “Z-022” for “Z-024”, “mouse” for “pig”, “ERS12561821” for “ERS12561823”; conditions: 2 µM
Also: call rule not given here.

Row | Bacterial Biotransformation [2] | Bacterial Biotransformation [3] | Bacterial Biotransformation [4] | Bacterial Biotransformation [5] | Bacterial Biotransformation [6] | Bacterial Biotransformation [7] | Bacterial Biotransformation [8] | Bacterial Biotransformation [9] | Bacterial Biotransformation [10] | Bacterial Biotransformation [11] | Bacterial Biotransformation [12] | Bacterial Biotransformation [13] | Bacterial Biotransformation [14] | Bacterial Biotransformation [15] | Bacterial Biotransformation [16] | Bacterial Biotransformation [17] | Bacterial Biotransformation [18] | SMILES | Bacterial Biotransformation [1]
1 | Compound metabolized | Compound metabolized | Compound NOT metabolized | Compound NOT metabolized | Compound NOT metabolized | Compound NOT metabolized | Compound NOT metabolized | Compound NOT metabolized | Compound NOT metabolized | Compound NOT metabolized | Compound metabolized | Compound NOT metabolized | Compound NOT metabolized | Compound NOT metabolized | Compound NOT metabolized | – | – | CN(C)CCc1c[nH]c2ccc(CS(=O)(=O)N3CCCC3)cc12 [ALMOTRIPTAN] | –
2 | Compound metabolized | Compound NOT metabolized | Compound NOT metabolized | Compound metabolized | Compound metabolized | Compound metabolized | Compound NOT metabolized | Compound NOT metabolized | Compound NOT metabolized | Compound NOT metabolized | Compound metabolized | Compound metabolized | Compound metabolized | Compound metabolized | Compound metabolized | – | – | CCCCC(=O)O[C@]1(C(=O)CO)[C@@H](C)C[C@H]2[C@@H]3CCC4=CC(=O)C=C[C@]4(C)[C@@]3(F)[C@@H](O)C[C@@]21C [BETAMETHASONE VALERATE] | –
3 | Compound metabolized | Compound metabolized | Compound metabolized | Compound metabolized | Compound metabolized | Compound metabolized | Compound metabolized | Compound metabolized | Compound metabolized | Compound metabolized | Compound metabolized | Compound metabolized | Compound metabolized | Compound metabolized | Compound metabolized | – | – | CC(=O)Oc1ccc(C(c2ccc(OC(C)=O)cc2)c2ccccn2)cc1 [BISACODYL] | –
4 | Compound metabolized | Compound metabolized | Compound metabolized | Compound metabolized | Compound metabolized | Compound NOT metabolized | Compound metabolized | Compound metabolized | Compound NOT metabolized | Compound NOT metabolized | Compound metabolized | Compound metabolized | Compound NOT metabolized | Compound metabolized | Compound metabolized | – | – | Cc1nc(Nc2ncc(C(=O)Nc3c(C)cccc3Cl)s2)cc(N2CCN(CCO)CC2)n1 [DASATINIB ANHYDROUS] | –
5 | Compound NOT metabolized | Compound NOT metabolized | Compound NOT metabolized | Compound NOT metabolized | Compound NOT metabolized | Compound NOT metabolized | Compound NOT metabolized | Compound metabolized | Compound NOT metabolized | Compound NOT metabolized | Compound metabolized | Compound NOT metabolized | Compound NOT metabolized | Compound NOT metabolized | Compound NOT metabolized | – | – | COCCCC/C(=N\OCCN)c1ccc(C(F)(F)F)cc1.O=C(O)/C=C\C(=O)O [FLUVOXAMINE MALEATE] | –
6 | Compound metabolized | Compound metabolized | Compound metabolized | Compound metabolized | Compound metabolized | Compound metabolized | Compound metabolized | Compound metabolized | Compound metabolized | Compound metabolized | Compound metabolized | Compound metabolized | Compound metabolized | Compound metabolized | Compound metabolized | – | – | CCOC(=O)C1=C(C)NC(C)=C(C(=O)OC)C1c1cccc([N+](=O)[O-])c1 (stereo unspecified) [NITRENDIPINE] | –
7 | Compound metabolized | Compound metabolized | Compound NOT metabolized | Compound metabolized | Compound metabolized | Compound NOT metabolized | Compound NOT metabolized | Compound NOT metabolized | Compound NOT metabolized | Compound NOT metabolized | Compound metabolized | Compound NOT metabolized | Compound metabolized | Compound NOT metabolized | Compound metabolized | – | – | N#Cc1ccc2c(c1)N(CCCN1CCC(O)CC1)c1ccccc1S2 [PERICIAZINE] | –
8 | Compound metabolized | Compound metabolized | Compound metabolized | Compound metabolized | Compound metabolized | Compound NOT metabolized | Compound NOT metabolized | Compound metabolized | Compound NOT metabolized | Compound metabolized | Compound NOT metabolized | Compound metabolized | Compound metabolized | Compound metabolized | Compound metabolized | – | – | O=C([O-])C[C@H](O)C[C@H](O)/C=C/c1c(C2CC2)nc2ccccc2c1-c1ccc(F)cc1.O=C([O-])C[C@H](O)C[C@H](O)/C=C/c1c(C2CC2)nc2ccccc2c1-c1ccc(F)cc1.[Ca+2] [PITAVASTATIN CALCIUM] | –
9 | Compound metabolized | Compound metabolized | Compound NOT metabolized | – | – | Compound NOT metabolized | Compound NOT metabolized | Compound NOT metabolized | Compound NOT metabolized | – | Compound metabolized | – | Compound metabolized | Compound NOT metabolized | Compound NOT metabolized | Compound metabolized | Compound metabolized | CNNCc1ccc(C(=O)NC(C)C)cc1 [PROCARBAZINE] | Compound metabolized

Row | SMILES | Bacterial Biotransformation [2] | Bacterial Biotransformation [3] | Bacterial Biotransformation [4] | Bacterial Biotransformation [5] | Bacterial Biotransformation [6] | Bacterial Biotransformation [7] | Bacterial Biotransformation [8] | Bacterial Biotransformation [9] | Bacterial Biotransformation [10] | Bacterial Biotransformation [11] | Bacterial Biotransformation [12] | Bacterial Biotransformation [13] | Bacterial Biotransformation [14] | Bacterial Biotransformation [15] | Bacterial Biotransformation [16] | Bacterial Biotransformation [17] | Bacterial Biotransformation [18] | Bacterial Biotransformation [1]
10 | N[C@@H](Cc1ccc(N(CCCl)CCCl)cc1)C(=O)O | Compound NOT metabolized | Compound metabolized | Compound metabolized | Compound metabolized | Compound metabolized | Compound NOT metabolized | Compound NOT metabolized | Compound metabolized | Compound NOT metabolized | Compound metabolized | Compound NOT metabolized | – | – | – | – | – | – | Compound metabolized
11 | CN1CCN(C2=Nc3ccccc3Oc3ccc(Cl)cc32)CC1.O=C(O)CCC(=O)O [LOXAPINE SUCCINATE] | Compound NOT metabolized | Compound NOT metabolized | Compound NOT metabolized | Compound NOT metabolized | Compound NOT metabolized | Compound NOT metabolized | Compound NOT metabolized | Compound NOT metabolized | Compound NOT metabolized | Compound NOT metabolized | Compound NOT metabolized | Compound NOT metabolized | Compound NOT metabolized | Compound NOT metabolized | Compound NOT metabolized | – | – | –
